Experimental findings from paper PMC11251039, “Harnessing cholesterol uptake of malaria parasites for therapeutic applications” (EMBO Molecular Medicine, 2024) are described below.

In experiment [1] the test system is asexual P. falciparum 3D7 wild-type parasites. The experiment can be described thus: P. falciparum asexual growth inhibition assay (SYBR Safe DNA replication). The experiment is classed as cell-based, Plasmodium falciparum. As to conditions: for Figure 5B dose-response source data (growth, replicate values): individual replicates. The method, then:
P. falciparum asexual parasite assays commenced with ring-stage parasites at 1% parasitaemia and 1% haematocrit. 200 nM chloroquine (Sigma C6628) or artesunate (Sigma A3731) was used as a no-growth control. DNA replication (indicating growth) was measured at the specified time using SYBR Safe DNA Gel Stain (Invitrogen 33102) and a fluorescence microplate reader (Smilkstein et al, [2004]; Spry et al, [2013]). […]
Growth and Viability Inhibition Assays:
Plasmodium falciparum Growth Inhibition Assays:
P. falciparum parasites were maintained under routine culture conditions in red blood cells and RPMI 1640-Hepes with Glutamax, supplemented with 10 mM D-glucose, 480 μM hypoxanthine, 20 μg/mL gentamicin, 0.375% (w/v) AlbuMAXTM II (Thermo Fisher 11021029), and 2.5% v/v heat-inactivated human serum (17). Cultures were maintained at 37 °C […]
wildtype parasites except for the ring stage survival assay, as specified. Cultures were synchronised with 5% w/v D-sorbitol (18).
Growth inhibition was investigated according to methods described by Smilkstein et al. (19) with modifications by Spry et al. (20). Compounds or solvent controls (DMSO, ethanol, or ethyl acetate) were serially diluted 2-fold across flat-bottom 96-well plates. Culture media without compound was used as a negative control. 200 nM chloroquine (Sigma C6628) or artesunate (Sigma A3731) was used as a positive control to determine background fluorescence. The parasitaemia of a culture containing predominantly ring stage parasites was counted by Giemsa smear. The parasitaemia was adjusted to 1% by addition of fresh uRBCs and added to the plate at a final haematocrit of 1%, with 200 µL per well. The plates were incubated at 37 °C under humid microaerophilic conditions. After 24, 48, or 72 hours, the plates were transferred to a -18 °C freezer to stop the assay and lyse cells. Plates were thawed and lysate was mixed 1:1 with SYBR Safe DNA Gel Stain (Invitrogen 33102) (final concentration 1/10,000) diluted in lysis buffer (20 mM TRIS, 5 mM EDTA, 0.008% w/v Saponin, 0.08% w/v Triton-X 100, pH 7.5). Fluorescence was detected at 490 nm excitation/ 520 nm emission on a FLUOstar Optima fluorescence plate reader (BMG Labtech).

Experiment [2] has as its system human embryonic kidney cells (HEK293). In words: Human embryonic kidney cell viability assay (MTT). The format is cell-based. To be noted: for Dose-response data points (Figure 5C): replicate data points. On the procedure:
HEK293 cell viability assays commenced with 5000 cells per well. 10 µg/mL cycloheximide was used as a no-growth control. Metabolic capacity (indicating viability) was measured in an absorbance microplate reader after incubation with 0.45 mg/mL methylthiazolyldiphenyl-tetrazolium bromide (MTT; Sigma M2128) for 2 h followed by crystal solubilisation in SDS. […]
Human Embryonic Kidney Cell Viability Assays:
Human Embryonic Kidney Cell (HEK293) culture:
The HEK293 cell line was maintained under routine culture conditions in DMEM containing 3.7 g/L NaHCO3 supplemented with 10% FBS, 200 μM glutamine, 100 units/mL penicillin, and 100 μg/mL streptomycin at 37 °C in a humidified 5% CO2 incubator.
Cells were detached from a flask using 0.25% Trypsin with 0.2 g/L EDTA (Sigma T4049) and washed with culture media containing no phenol red. Cells were incubated with a serial dilution of each compound, or media/DMSO alone. The protein synthesis inhibitor cycloheximide (Sigma 01810) at 10 µg/mL was used as a positive control to determine background absorbance. 5,000 cells were seeded in each well. After 96 hours, 0.45 mg/mL methylthiazolyldiphenyl-tetrazolium bromide (MTT; Sigma M2128) was added and incubated for a further two hours, before mixing 1.1:1 with 10% w/v sodium dodecyl sulfate (SDS) to solubilise crystals and freezing the plate at -18 °C to stop the assay. […]

Several values for one entry are separate records, joined by “and”; a condition that tells them apart may be missing. Equal values may be shown once.

One may read the IC50 as the concentration that inhibits the measured activity by half. `C[C@]12CC[C@H](O)CC1=CC[C@@H]1[C@@H]2CC[C@]2(C)C(=O)CC[C@@H]12` [DHEA, Dehydroepiandrosterone]: the “Figure 5B dose-response source data (growth, replicate values)” value in experiment [1] (Concentration 1.5625 uM) was 105 and 100.9 and 101.2 (2×) and 104.8 and 107.1 and 104 and 104.2 and 97.24; in experiment [1] (Concentration 3.125 uM), 99.54 and 98.59 and 99.35 and 103.6 and 96.02 and 105.9 and 103.9 and 101.1 and 100.2; in experiment [1] (Concentration 6.25 uM), 94.64 and 99.33 and 101.7 and 100.2 (2×) and 103.5 and 102.7 and 100.1 and 101.2; in experiment [1] (Concentration 12.5 uM), 97.83 and 97.77 and 98.63 and 101.4 and 104.7 and 102.2 and 102.3 and 100.6 and 97.67; in experiment [1] (Concentration 25 uM) it was 97.33 and 98.84 and 99.51 and 104.1 and 102.5 and 109.8 and 97.3 and 98.4 and 101.2; in experiment [1] (Concentration 50 uM) it was 91.17 and 88.79 and 89.21 and 91.36 and 96.36 and 97.35 and 94.23 and 92.68 and 93.65. The “Figure 5B dose-response source data (growth, replicate values)” value in experiment [1] (Concentration 100 uM) is 80.03 and 78.97 and 77.22 and 68.91 and 88.77 and 89.83 and 76.17 and 73.25 and 71.62; in experiment [1] (Concentration 200 uM) it was 36.08 and 37.08 and 31 and 29.85 and 51.4 and 44.23 and 15.92 and 13.39 and 11.5; in experiment [1] (Concentration 400 uM) it was 0.02245 and -0.2944 and -1.594 and 1.899 and 4.652 and 1.525 and -5.885 and -7.232 and -8.092. Besides, the IC50 in experiment [1] (Plasmodium falciparum, 3D7, 72 h, 72 h, read-out: IC50, P. falciparum asexual growth inhibition) amounted to 150 µM; in experiment [2] (Homo sapiens, 96 h, HEK293, read-out: IC50, human embryonic kidney cell inhibition (viability)) it was 88.5 µM. Moreover, the “Dose-response data points (Figure 5C)” value in experiment [2] (3.125000 μM) is 108.5 and 113.8 and 102.3 and 90.3 and 90.17 and 89.76; in experiment [2] (6.250000 μM) it was 115 and 79.4 and 102.8 and 86.08 and 90.81 and 85.1; in experiment [2] (12.500000 μM), 83.96 and 112.7 and 100.9 and 95.11 and 92.95 and 84.24 and 113.9 and 109.3 and 94.8 and 88.3 and 83.73 and 81.43; in experiment [2] (25.000000 μM) it was 74.02 and 110.4 and 109.9 and 89.17 and 79.81 and 87.49 and 124 and 119.6 and 106.3 and 78.12 and 83.41 and 71.52; in experiment [2] (50.000000 μM), 65.27 and 101.5 and 98.29 and 73.76 and 69.18 and 75.02 and 111.3 and 62.75 and 93.36 and 87.06 and 86.25 and 84.64; in experiment [2] (100.000000 μM), 28.83 and 48.06 and 53.97 and 38.87 and 26.11 and 38.89 and 29.34 and 31.58 and 34.33 and 61 and 65.6 and 64. For the same compound, the “Dose-response data points (Figure 5C)” value in experiment [2] (200.000000 μM) is -0.4301 and 3.655 and 7.381 and -0.1582 and -0.5868 and -0.7801 and -3.647 and -3.757 and -3.702 and -0.3542 and 0.648 and 0.1847; in experiment [2] (400.000000 μM) it was -1.929 and -2.654 and -2.355 and -0.05272 and -1.637 and -1.302 and -3.718 and -4.096 and -4.009 and -3.542 and -3.411 and -3.648.
